Earlier results, collected in patent US20120058950A1, “DETECTION OF NEUROPEPTIDES ASSOCIATED WITH PELVIC PAIN DISORDERS AND USES THEREOF” (University of Vermont and State Agricultural College, priority 2003, published 2012).
No end group written: not given here.

For “Pituitary Adenylate Cyclase Activating Peptide (HSDGIFTDSYSRYRKQMAVKKYLAAVLGKRYKQRVKNK; ends and bridges not checked; UniProt P18509 132-169, looked up) [PACAP]”, the “bladder activity in vitro (contraction of detrusor, alteration of electrically or cholinergically elicited contractions)” value (detrusor) is listed as “no bladder activity in vitro” and the “activity when infused near the bladder” value (bladder) is listed as “has activity when infused near the bladder”.
